# Assay: solvent given as SMILES
# Settings: in C1CCCCC1
row,emission maximum [nm],Structure (SMILES)
1,390,CCC(C)(C)c1ccc(-c2ccc3c(c2)C(CCOC)(CCOC)c2cc4c(cc2-3)C(CCOC)(CCOC)c2cc(-c3ccc(C(C)(C)CC)cc3)ccc2-4)cc1
2,413.38,Fc1ccc(-c2cc3ccc4cc(-c5ccc(F)cc5)cc5ccc(c2)c3c45)cc1
3,415,CN(C)C(=O)c1ccc(-c2nc3ccc(N(C)C)cc3s2)cc1
4,633,C#CCNC1=C2C=C(c3cc4n(c3)[B-](F)(F)[N+]3=CC=CC3=C4c3c(C)cc(C)cc3C)C(C)=[N+]2[B-](F)(F)n2c(C)ccc21
5,645,CC1=[N+]2C(=C(c3ccc4c(c3)Cc3ccccc3-4)c3ccc(C)n3[B-]2(F)F)C=C1c1cc2n(c1)[B-](F)(F)[N+]1=CC=CC1=C2c1c(C)cc(C)cc1C

row,Structure (SMILES),emission maximum [nm]
1,COc1ccc2c3c(c4ccc(OC)cc4c2c1)=[N+]1C(=C(c2c(C)cc(C)cc2C)c2cc4c5ccc(OC)cc5c5cc(OC)ccc5c4n2[B-]1(F)F)C=3,700
2,CC1=[N+]2C(=C(c3ccc(N(C)C)cc3)c3ccc(C)n3[B-]2(F)F)C=C1,518
3,[C-]#[N+]c1ccc(-c2ccc(N(C)C)cc2)cc1,360

# Same assay, conditions: in C1CCOC1
row,Structure (SMILES),emission maximum [nm]
1,CC1=CC(C)=[N+]2C1=C(c1ccc(N3CCOCC3)cc1)c1c(C)cc(C)n1[B-]2(F)F,514
2,CC(=O)c1ccc(-c2cnc3nn4ccccc4c3n2)cc1,455
3,O=C1c2ccc3c4c(Oc5ccccc5)cc5c6c(ccc(c7c(Oc8ccccc8)cc(c2c37)C(=O)N1c1ccc(O)cc1)c64)C(=O)N(c1ccc(O)cc1)C5=O,564
4,CCOC(=O)/C(C#N)=C\c1cn(-c2ccccc2)nc1-c1ccccc1,429
5,COc1ccc2c3c(c4ccc(OC)cc4c2c1)=[N+]1C(=C(c2c(C)cc(C)cc2C)c2cc4c5ccc(OC)cc5c5cc(OC)ccc5c4n2[B-]1(F)F)C=3,712
6,Fc1ccc(-c2cc3ccc4cc(-c5ccc(F)cc5)cc5ccc(c2)c3c45)cc1,411.8
7,CC1=[N+]2C(=C(c3ccc(N(C)C)cc3)c3ccc(C)n3[B-]2(F)F)C=C1,517
8,[C-]#[N+]c1ccc(-c2ccc(N(C)C)cc2)cc1,408
9,C(=C\c1ccc(-c2nnc(-c3ccc(/C=C/c4ccc(-c5nc(-c6ccccc6)c(-c6ccccc6)[nH]5)cc4)cc3)o2)cc1)/c1ccc(-c2nc(-c3ccccc3)c(-c3ccccc3)[nH]2)cc1,492
10,C(=C\c1nc(/C=C/c2ccc(-n3c4ccccc4c4ccccc43)cc2)nc(/C=C/c2ccc(-n3c4ccccc4c4ccccc43)cc2)n1)/c1ccc(-n2c3ccccc3c3ccccc32)cc1,500
11,N#Cc1cc2ccc(O)cc2oc1=N,412

# Same assay, conditions: in C1COCCO1
row,Structure (SMILES),emission maximum [nm]
1,CCOC(=O)/C(C#N)=C\c1cn(-c2ccccc2)nc1-c1ccccc1,408
2,CCCN1C(=O)C(=CC=CC=C2Oc3ccccc3N2CCCS(=O)(=O)[O-])C(=O)N(CCC)C1=S,584
3,COc1ccc(C2=N/C(=C\c3ccccc3)C(=O)O2)cc1OC,447
4,[C-]#[N+]c1ccc(-c2ccc(N(C)C)cc2)cc1,397

# Same assay, conditions: in CC#N
row,Structure (SMILES),emission maximum [nm]
1,CC1=CC(C)=[N+]2C1=C(c1ccc(N3CCOCC3)cc1)c1c(C)cc(C)n1[B-]2(F)F,511
2,O=c1oc2ccccc2cc1-c1cc2ccccc2o1,442
3,Oc1ccc2ccccc2c1C1Nc2cccc3cccc(c23)N1,540
4,COc1ccc2c3c(c4ccc(OC)cc4c2c1)=[N+]1C(=C(c2c(C)cc(C)cc2C)c2cc4c5ccc(OC)cc5c5cc(OC)ccc5c4n2[B-]1(F)F)C=3,712
5,Fc1ccc(-c2cc3ccc4cc(-c5ccc(F)cc5)cc5ccc(c2)c3c45)cc1,408.05
6,CN(C)C(=O)c1ccc(-c2nc3ccc(N(C)C)cc3s2)cc1,521
7,CC1=[N+]2C(=C(c3ccc(N(C)C)cc3)c3ccc(C)n3[B-]2(F)F)C=C1,511
8,O=c1[nH]c(=O)c2scc([C@H]3C[C@H](O)[C@@H](CO)O3)c2[nH]1,345
9,[C-]#[N+]c1ccc(-c2ccc(N(C)C)cc2)cc1,429
10,C(=C\c1ccc(-c2nnc(-c3ccc(/C=C/c4ccc(-c5nc(-c6ccccc6)c(-c6ccccc6)[nH]5)cc4)cc3)o2)cc1)/c1ccc(-c2nc(-c3ccccc3)c(-c3ccccc3)[nH]2)cc1,525
11,C(=C\c1nc(/C=C/c2ccc(-n3c4ccccc4c4ccccc43)cc2)nc(/C=C/c2ccc(-n3c4ccccc4c4ccccc43)cc2)n1)/c1ccc(-n2c3ccccc3c3ccccc32)cc1,574
12,N#Cc1cc2ccc(O)cc2oc1=N,408

# Same assay, conditions: in CC(=O)C(C)(C)C
row,Structure (SMILES),emission maximum [nm]
1,CC1=CC(C)=[N+]2C1=C(c1ccc(N3CCOCC3)cc1)c1c(C)cc(C)n1[B-]2(F)F,520
2,CC1=[N+]2C(=C(c3ccc(N(C)C)cc3)c3ccc(C)n3[B-]2(F)F)C=C1,512

# Same assay, conditions: in CC(C)=O
row,Structure (SMILES),emission maximum [nm]
1,CC1=CC(C)=[N+]2C1=C(c1ccc(N3CCOCC3)cc1)c1c(C)cc(C)n1[B-]2(F)F,516
2,CCCN1C(=O)C(=CC=CC=C2Oc3ccccc3N2CCCS(=O)(=O)[O-])C(=O)N(CCC)C1=S,580
3,CC1=[N+]2C(=C(c3ccc(N(C)C)cc3)c3ccc(C)n3[B-]2(F)F)C=C1,515
4,[C-]#[N+]c1ccc(-c2ccc(N(C)C)cc2)cc1,422

# Same assay, conditions: in CC(C)O
row,emission maximum [nm],Structure (SMILES)
1,518,CN(C)C(=O)c1ccc(-c2nc3ccc(N(C)C)cc3s2)cc1

# Same assay, conditions: in CCCCCC
row,Structure (SMILES),emission maximum [nm]
1,CC1=CC(C)=[N+]2C1=C(c1ccc(N3CCOCC3)cc1)c1c(C)cc(C)n1[B-]2(F)F,511
2,Fc1ccc(-c2cc3ccc4cc(-c5ccc(F)cc5)cc5ccc(c2)c3c45)cc1,411.8
3,CC1=[N+]2C(=C(c3ccc(N(C)C)cc3)c3ccc(C)n3[B-]2(F)F)C=C1,519
4,[C-]#[N+]c1ccc(-c2ccc(N(C)C)cc2)cc1,357

# Same assay, conditions: in CCCCCCC
row,emission maximum [nm],Structure (SMILES)
1,603,c1ccc2c3c(ccc2c1)-c1c2ccccc2cc2cccc-3c12

# Same assay, conditions: in CCCCO
row,Structure (SMILES),emission maximum [nm]
1,CCCN1C(=O)C(=CC=CC=C2Oc3ccccc3N2CCCS(=O)(=O)[O-])C(=O)N(CCC)C1=S,583

# Same assay, conditions: in CCCO
row,Structure (SMILES),emission maximum [nm]
1,CCCN1C(=O)C(=CC=CC=C2Oc3ccccc3N2CCCS(=O)(=O)[O-])C(=O)N(CCC)C1=S,581

# Same assay, conditions: in CCO
row,emission maximum [nm],Structure (SMILES)
1,408.84,Fc1ccc(-c2cc3ccc4cc(-c5ccc(F)cc5)cc5ccc(c2)c3c45)cc1
2,465,O=c1c2cc(F)c(O)cc2sc2cc(O)c(F)cc12
3,497,CN1c2cc3nc4cc(Cl)c(Cl)cc4nc3cc2N(C)C1(C)C
4,496,CC1(C)Nc2cc3nc4cc(F)c(F)cc4nc3cc2N1

row,Structure (SMILES),emission maximum [nm]
1,CCOC(=O)/C(C#N)=C\c1cn(-c2ccccc2)nc1-c1ccccc1,423
2,CCCN1C(=O)C(=CC=CC=C2Oc3ccccc3N2CCCS(=O)(=O)[O-])C(=O)N(CCC)C1=S,579

# Same assay, conditions: in CCOC(C)=O
row,Structure (SMILES),emission maximum [nm]
1,CC1=CC(C)=[N+]2C1=C(c1ccc(N3CCOCC3)cc1)c1c(C)cc(C)n1[B-]2(F)F,517
2,O=c1oc2ccccc2cc1-c1cc2ccccc2o1,433
3,CCOC(=O)/C(C#N)=C\c1cn(-c2ccccc2)nc1-c1ccccc1,427
4,CC1=[N+]2C(=C(c3ccc(N(C)C)cc3)c3ccc(C)n3[B-]2(F)F)C=C1,513
5,C#CCNC1=C2C=C(c3cc4n(c3)[B-](F)(F)[N+]3=CC=CC3=C4c3c(C)cc(C)cc3C)C(C)=[N+]2[B-](F)(F)n2c(C)ccc21,690
6,O=c1[nH]c(=O)c2scc([C@H]3C[C@H](O)[C@@H](CO)O3)c2[nH]1,343
7,CC1=[N+]2C(=C(c3ccc4c(c3)Cc3ccccc3-4)c3ccc(C)n3[B-]2(F)F)C=C1c1cc2n(c1)[B-](F)(F)[N+]1=CC=CC1=C2c1c(C)cc(C)cc1C,675
8,[C-]#[N+]c1ccc(-c2ccc(N(C)C)cc2)cc1,406
9,N#Cc1cc2ccc(O)cc2oc1=N,414

# Same assay, conditions: in CN1CCCC1=O
row,emission maximum [nm],Structure (SMILES)
1,592,O=C1c2ccc3c4c(Oc5ccccc5)cc5c6c(ccc(c7c(Oc8ccccc8)cc(c2c37)C(=O)N1c1ccc(O)cc1)c64)C(=O)N(c1ccc(O)cc1)C5=O

# Same assay, conditions: in CN(C)C=O
row,Structure (SMILES),emission maximum [nm]
1,O=C1c2ccc3c4c(Oc5ccccc5)cc5c6c(ccc(c7c(Oc8ccccc8)cc(c2c37)C(=O)N1c1ccc(O)cc1)c64)C(=O)N(c1ccc(O)cc1)C5=O,576
2,CCOC(=O)/C(C#N)=C\c1cn(-c2ccccc2)nc1-c1ccccc1,434
3,Fc1ccc(-c2cc3ccc4cc(-c5ccc(F)cc5)cc5ccc(c2)c3c45)cc1,409.82
4,[C-]#[N+]c1ccc(-c2ccc(N(C)C)cc2)cc1,433
5,C(=C\c1ccc(-c2nnc(-c3ccc(/C=C/c4ccc(-c5nc(-c6ccccc6)c(-c6ccccc6)[nH]5)cc4)cc3)o2)cc1)/c1ccc(-c2nc(-c3ccccc3)c(-c3ccccc3)[nH]2)cc1,524
